Results reported in PMC12472597, “Pan-Amyloid Reactive Peptides p5+14 and p5R Exhibit Specific Charge-Dependent Binding to Glycosaminoglycans” (Pharmaceuticals, 2025).
“Also recorded” adds a separate entry of the source. No end group written: not given here.

Tests used:
[1] = cited from earlier work
Excerpt: The concept of pan-amyloid reactive agents is not a new one. […] The binding sites are recurring with defined periodicity, which results in Congo red birefringence when stained amyloid is viewed under cross polarized illumination,a and a red shift in the emission maximum and increase in the quantum yield when thiofl ...

[2] = clinical studies (NCT02603172); cited from earlier work
Method: The impact of accessory proteins in amyloid deposits remains unclear; however, some components have been evaluated extensively. Serum amyloid P component, for example, was thought to stabilize the amyloid pathology and render it resistant to proteolysis and immunological clearance. This hypothesis was tested using a small molecule drug (miridesap) that crosslinks SAP, thereby clearing it from amyloid deposits, potentially leading to their clearance. […] This was ...

[3] = cited from earlier work; remark: listed apart in the source
Excerpt: Both peptides consist of a repeating heptad structure with periodic lysine (p5+14; -XXKXXXK-) or arginine (p5R; -XXRXXXR-) amino acids. […] These peptides also avidly bind other highly negatively charged linear molecules such as heparin and hypersulfated HSPG, the latter of which is associated with amyloid deposits in vivo [18, 20, 21, 22].

[4] = GAG array apparent EC50, heparin (GAG16); format: binding; conditions: biotinylated peptide, 1 h RT, n = 4
Excerpt: (§1) One exemplar GAG from the groups of heparin, HS, CS-AC, and CS-D was chosen to assess the Ec50 (concentration at the midpoint of binding). Bound peptide fluorescence was plotted against the concentration of peptide and a sigmoidal 4PL binding curve fit to the data (Figure 6). For GAGs with high peptide binding (heparin, HS, and highly sulfated CS-D), Ec50 calculations could be performed for both biotinylated p5+14 and p5R (Figure 6A,C,D). […] The differential binding potency, despite the shared selectivity, is likely due to the higher net charge on p5+14 (+12) compared with p5R (+8).
(§2) Glycosaminoglycan (GAG) microarray binding studies were performed by Z Biotech (Z Biotech, LLC, Aurora, CO, USA). Briefly, microarrays were laid out in a 16-subarray arrangement with 47 GAG or 24 heparan sulfate (HS) binding targets per subarray. […] The fluorescence emission was quantified by scanning at 532 nm and evaluated using Mapix microarray software (Innopsys, Carbonne, France). […]
(§3) Data visualization, statistical analysis, and correlations were performed using GraphPad Prism v 9.4.1 or later. […] Apparent affinities (Ec50) of peptides to array substrates were calculated using sigmoidal 4PL curve fitting to calculate the Ec50 in µg/mL, which was converted to molarity using the appropriate peptide molecular weight.

[5] = GAG array apparent EC50, CS-D (GAG28); format: binding; conditions: biotinylated peptide; for EC50: 1 h RT, 4PL fit, n = 4
Excerpt: as §1
(§4) Glycosaminoglycan (GAG) microarray binding studies were performed by Z Biotech (Z Biotech, LLC, Aurora, CO, USA). Briefly, microarrays were laid out in a 16-subarray arrangement with 47 GAG or 24 heparan sulfate (HS) binding targets per subarray. Spotted arrays were blocked at room temperature (RT) for 30 min with Glycan Array Blocking Buffer (Z Biotech, LLC, Aurora, CO, USA) before being washed. Biotinylated peptides were diluted in blocking buffer + 1% bovine serum albumin to final concentrations of 50, 10, 2, 0.4, and 0.08 µg/mL and the solutions added to the arrays for 1 h at RT. The arrays were then washed again and streptavidin-Cy3 (0.2 µg/mL) added, followed by a 1-h incubation. The fluorescence emission was quantified by scanning at 532 nm and evaluated using Mapix microarray software (Innopsys, Carbonne, France). Background control data were subtracted from binding signals before the data were averaged.
(§5) Data visualization, statistical analysis, and correlations were performed using GraphPad Prism v 9.4.1 or later. Correlations of peptide binding to microarray substrates were performed using Pearson’s correlations. Apparent affinities (Ec50) of peptides to array substrates were calculated using sigmoidal 4PL curve fitting to calculate the Ec50 in µg/mL, which was converted to molarity using the appropriate peptide molecular weight.

[6] = GAG array apparent EC50, CS-AC (GAG22); format: binding; conditions: biotinylated peptide, n = 4; for EC50: 1 h RT, 4PL fit
Excerpt: as §1, §4, §5

[7] = Circular dichroism secondary structure; format: physicochemical
Method: Peptide secondary structures were analyzed by circular dichroism using an Olis RSM 1000 (On-line Instrument Systems, Inc., Bogart, GA, USA). Each study consisted of three replicates that were averaged and the dilution/background spectra subtracted. Non-biotinylated peptides were diluted to 0.05 mg/mL in phosphate buffered saline (PBS). For experiments involving the addition of enoxaparin (Amphastar Pharmaceuticals Inc., Rancho Cucamonga, CA., USA), enoxaparin was added to diluted peptide in PBS to reach a final concentration of 0–66.7 µg/mL. For experiments involving the addition of 2,2,2-trifluoroethanol (TFE) (Thermo Fisher Scientific, Waltham, MA, USA), TFE was added to diluted peptide in PBS to reach a final concentration of 0–40%.

[8] = HS array apparent Ec50, HS16; format: binding; conditions: biotinylated peptide, 4PL fit, n = 6
Method: (§6) Biotinylated peptide binding to four of the HS glycans in the array were analyzed further to assess the estimated binding potency (Figure 9). […] The HS glycans used in this binding analysis contained fewer saccharide units and less total charge compared with that shown in Figure 6D, which may explain the difference in the estimated potency data.
(§7) Glycosaminoglycan (GAG) microarray binding studies were performed by Z Biotech (Z Biotech, LLC, Aurora, CO, USA). Briefly, microarrays were laid out in a 16-subarray arrangement with 47 GAG or 24 heparan sulfate (HS) binding targets per subarray. Spotted arrays were blocked at room temperature (RT) for 30 min with Glycan Array Blocking Buffer (Z Biotech, LLC, Aurora, CO, USA) before being washed. […] The fluorescence emission was quantified by scanning at 532 nm and evaluated using Mapix microarray software (Innopsys, Carbonne, France). […]
as §3

[9] = Heparan sulfate microarray binding (24 HS); conditions: biotinylated peptide; 0.4, 2, 10 µg/mL; n = 6
Method: This array comprised 24 structurally unique synthetic HS domains that varied in length, net charge, and charge density (Supplementary Figure S3). The binding of biotinylated peptides p5+14 (Figure 7A) and p5R (Figure 7B) to the HS array was performed as above, using increasing concentrations of peptide. The intensity of binding for both peptides, based on the fluorescence intensity, was closely related to the total charge (total sulfations) of the ligand (Figure 7, shown in red).
as §7, §3

[10] = GAG microarray binding (47 GAGs); conditions: biotinylated peptide
Method: To assess the binding selectivity of biotinylated p5+14 and p5R peptides, we used a commercial glycosaminoglycan (GAG) binding microarray (ZBiotech, CO, USA), which contains 16 subarrays each consisting of 47 differing GAGs (varying lengths, charges, and composition (Supplementary Figure S1)) plus internal controls. Increasing concentrations of each peptide were evaluated on the subarrays. The GAG arrays consisted of exemplar hyaluronic acid (HA), heparin, chondroitin sulfate A/C (CS-AC), chondroitin sulfate D (CS-D), dermatan sulfate (DS), heparan sulfate (HS with low to intermediate sulfation levels), heparan sulfate (HS with high sulfation levels), and […] (KS). Background corrected binding of peptides p5+14 and p5R, at 2 µg/mL, to each GAG is shown in Figure 4A,B (additional concentrations are shown in Supplementary Figure S2). […] For heparin and highly sulfated HS, the binding intensity closely paralleled the total negative charge for each GAG (Figure 4C).
as §4, with “The arrays were then washed again and streptavidin-Cy3 (0.2 µg/mL) added, followed by a 1-h incubation.” left out, “Background control data were subtracted from binding signals before the data were averaged.” left out
as §3

[11] = HS array apparent Ec50, HS13; format: binding; conditions: biotinylated peptide; increasing peptide concentration; n = 6
Method: as §6, §7, §3

[12] = GAG array apparent EC50, HS (GAG46); format: binding; conditions: biotinylated peptide, highly sulfated HS, 4PL fit, n = 4
Excerpt: as §1, §2, §3

[13] = HS array apparent Ec50, HS24; format: binding; conditions: biotinylated peptide, 4PL fit, n = 6
Method: as §6, §7, §3

[14] = HS array apparent Ec50, HS22; format: binding; conditions: biotinylated peptide, 4PL fit, n = 6
Method: as §6, §7, §3

[15] = PET/CT imaging of patients with systemic amyloidosis; format: in vivo, human; conditions: PET/CT at 5 h post injection
Method: Patients were imaged with p5+14 as part of the first-in-human, open label, Phase 1 study (NCT03678259). Synthesis of ^124I-labeled p5+14 has previously been reported. Briefly, lyophilized human grade peptide (Attralus, Inc., Naples, FL, USA) was radiolabeled on the day of use with iodine-124 (3D Imaging, Little Rock, AR, USA) using iodogen as the oxidant. Subjects were administered a 2 mCi dose of I-124 (<2 mg of peptide) intravenously. PET/CT images were acquired from crown to thighs at 5 h post injection, using a Siemens Biograph PET/CT (Siemens Healthineers, Malvern, PA, USA) with 5 min bed positions for the PET and a low dose CT (120 kVp, 50 effective mAs).
Data were reconstructed using a 3-dimensional ordered subset expectation maximization algorithm with attenuation and prompt gamma corrections, a 168 × 168 image matrix, and an image resolution of ~8 mm full width at half maximum. CT reconstruction utilized a medium smoothing kernel and 4 mm reconstruction increments. Patient PET/CT images were generated using Inveon Research Workplace software (Ed. 4.2 [4.2.0.15]; Siemens Preclinical Solutions).

[16] = array in blocking buffer + 1% BSA, 0.08-50 µg/mL, streptavidin-Cy3, 532 nm, read-out: Apparent EC50
[17] = converted from µg/mL using peptide molecular weight, read-out: Apparent EC50 (Molarity)
[18] = initial spectrum, non-biotinylated peptide 0.05 mg/mL in PBS, n = 3
[19] = HS array in blocking buffer + 1% BSA, 1 h RT, streptavidin-Cy3, 532 nm, read-out: Apparent Ec50
[20] = converted from µg/mL using peptide molecular weight, read-out: Apparent Ec50 (Molarity)

Cc1ccc2c(c1)sc(-c1ccc(N(C)C)cc1)[n+]2C [thioflavin T]
Amyloid binding [1]: bind all types of amyloid but not in a specific way

O=C(O)[C@H]1CCCN1C(=O)CCCCC(=O)N1CCC[C@@H]1C(=O)O [miridesap]
Removal of amyloid in patients [2]: failed to promote the meaningful removal of amyloid in patients

bFGF: prototypical HS binding peptide [reference compound]
Binding in healthy tissues ([3]; healthy liver tissue and renal glomerulae): strong reactivity with healthy liver tissue and renal glomerulae

GGGYSKAQKAQAKQAKQAQKAQKAQAKQAKQAQKAQKAQAKQAKQ [p5+14, 45-residue polybasic lysine heptad-repeat peptide, net charge +12]
EC50 ([4]; array in blocking buffer + 1% BSA, 0.08-50 µg/mL, streptavidin-Cy3, 532 nm, sigmoidal 4PL fit, read-out: Apparent EC50): 1.2 µg/mL | EC50 ([4]; converted from µg/mL using peptide molecular weight, 4PL fit, read-out: Apparent EC50 (Molarity)): 251 nM | Reactivity with CS-D GAGs ([5]; GAG28 compared with GAG23-GAG27): abrupt intense reactivity of the peptides with GAG28, but none of the other CS GAGs (GAG23-GAG27) | EC50 [5, 16]: 1.33 µg/mL | EC50 [5, 17]: 280 nM | EC50 [6, 16]: 3.38 µg/mL | EC50 [6, 17]: 708 nM | Binding to CS-AC ([6]; fluorescence au vs peptide concentration): saturable binding | Secondary structure in solution ([7]; PBS pH 7.2): partially unfolded states in solution | Secondary structure with low molecular weight heparin ([7]; in PBS with enoxaparin): adopt an α-helical structure | CD large minimum [7, 18]: 208 nm | CD smaller minimum [7, 18]: 222 nm | Ratio of the CD minima with enoxaparin ([7]; non-biotinylated peptide 0.05 mg/mL in PBS, higher concentrations of enoxaparin (0-66.7 µg/mL), n = 3): ≥ 1 | Ratio of the CD minima with TFE ([7]; non-biotinylated peptide 0.05 mg/mL in PBS, increasing TFE (0-40%), n = 3): ≥ 1 | EC50 [8, 19]: 0.668 µg/mL | EC50 [8, 20]: 140 nM | HS binding pattern [9]: the binding to HS appeared to correlate precisely with the total charge of the HS | GAG binding selectivity ([10]; 2 µg/mL, background corrected fluorescence, n = 4): preferential binding to heparin and highly sulfated HS GAGs; also recorded: Little to no binding to HA, CS-AC, CS-D (with singular exception), DS, and KS | Binding to GAGs that were not heparin or HS ([10]; 2 µg/mL, n = 4): very little binding | Affinity for heparin and HS immobilized in the arrays ([10]; compared with biotinylated p5R, GAG and HS arrays): higher affinity for both heparin and HS immobilized in the arrays | Binding to HS13 [11]: did not reach saturation | EC50 ([12]; array in blocking buffer + 1% BSA, 0.08-50 µg/mL, 1 h RT, streptavidin-Cy3, 532 nm, read-out: Apparent EC50): 0.932 µg/mL | EC50 [12, 17]: 196 nM | EC50 [13, 19]: 0.448 µg/mL | EC50 [13, 20]: 94 nM | EC50 [14, 19]: 0.473 µg/mL | EC50 [14, 20]: 99.3 nM | Organ uptake in patients ([15]; 2 mCi (<2 mg of peptide) i.v., patients with systemic amyloidosis): consistent with uptake in organs and tissues clinically known or suspected of amyloid deposition | Organ uptake in healthy subjects ([15]; 2 mCi i.v., healthy subjects): no pathologic uptake was observed

GGGYSRAQRAQARQARQAQRAQRAQARQARQ [p5R]
In vivo biodistribution vs basic fibroblast growth factor ([3]; ^125I-labeled): differed dramatically from that of the quintessential HSPG binding protein, basic fibroblast growth factor

Nc1c(/N=N/c2ccc(-c3ccc(/N=N/c4cc(S(=O)(=O)O)c5ccccc5c4N)cc3)cc2)cc(S(=O)(=O)O)c2ccccc12 [Congo red]
Amyloid binding [1]: bind all types of amyloid but not in a specific way

serum amyloid P-component: biological reagent that exhibits pan-amyloid reactivity
Amyloid binding [1]: exhibit pan-amyloid reactivity
